# According to patent US20240100013A1, “SOTAGLIFLOZIN FOR IMPROVING LEFT ATRIAL FUNCTION” (CHARITÉ-UNIVERSITÄTSMEDIZIN BERLIN, priority 2021, published 2024):
# What was measured:
# LA cardiomyocytes = assay: Spontaneous SR Ca2+ release events (SCaEs) of isolated LA cardiomyocytes; type: cell-based, rat; settings: baseline conditions; antioxidative treatment; both HFpEF groups
# Excerpt: Cardiomyocyte isolation. LA and LV cardiomyocytes were isolated using enzymatic digestion as previously described in detail. See Bode D, Guthof T, Pieske B M, Heinzel F R, Hohendanner F: “Isolation of Atrial Cardiomyocytes from a Rat Model of Metabolic Syndrome-related Heart Failure with Preserved Ejection Fraction,” J Vis Exp 2018(137).
# Solutions and chemicals. Chemicals were obtained from Sigma-Aldrich (St. Louis, MO, USA) unless noted otherwise. The dual SGLT1/2 inhibitor sotagliflozin was provided by Lexicon Pharmaceuticals (The Woodlands, TX, USA). Fluorescent dyes Fura-2 AM, Rhod-2 AM, MitoTracker red, MitoTracker green, TMRE and H2-DCF were obtained from Thermo Fisher Scientific (Waltham, MA, USA). Tyrode solution contained (in mM): 130 NaCL, 4 KCl, 2 CaCl, 1 MgCl2, 10 Glucose, 10 HEPES; pH adjusted to 7.4 with NaOH. LA cardiomyocytes were plated on laminin-coated glass coverslips. 20 mM caffeine was added to Tyrode solution to induce sarcoplasmic reticulum (SR) Ca^2+ release and obtain a measure of SR Ca^2+ content. […]
# Ca^2+ measurements and sarcomere shortening. Radiometric Ca^2+ measurements (excitation: 340 nm and 385 nm, emission: 510±10 nm; [Ca^2+] expressed as the ratio R=F340/F380) were performed either with a CytoCypher MultiCell System (CytoCypher BV, Netherlands; FIGS. 1C-F, 2D-G, 4A-F) or an Axiovert 200 microscope (Zeiss, Oberkochen, Germany) fluorescence imaging assembly (FIGS. 2A-C, 2H-J, 3A-E, 6E-I). […] Experiments were conducted at 37° C. and CaT were recorded at steady state (following electric stimulation).
# CaT and sarcomere shortening of LA and LV cardiomyocytes were recorded for 10 s at 3 Hz stimulation. See FIGS. 2D-G, 4A-F. Electric stimulation was turned off and spontaneous SR Ca^2+ release events (See Voigt N, Heijman J, Wang Q, Chiang D Y, Li N, Karck M, Wehrens X H T, Nattel S, Dobrev D: “Cellular and molecular mechanisms of atrial arrhythmogenesis in patients with paroxysmal atrial fibrillation,” Circulation 2014, 129(2):145-156) (SCaEs) immediately recorded for a duration of 10 s (FIG. 1C-F). […]
# [1] = tested on: high-fat diet/streptozotocin-induced diabetic rats; settings: via improved mitochondrial function; cited from earlier work
Structure (SMILES),occurrence of SCaEs (LA cardiomyocytes),diabetes related atrial fibrillation [1]
CC(=O)N[C@@H](CS)C(=O)O [acetylcysteine],decreased,–
OC[C@H]1O[C@@H](c2ccc(Cl)c(Cc3ccc(O[C@H]4CCOC4)cc3)c2)[C@H](O)[C@@H](O)[C@@H]1O [empagliflozin],–,mitigate
